This passage reports Δε, Δn and γ1 results from patent EP2593528B1, “LIQUID-C[…] WITH STABILIZER” (Merck Patent GmbH, priority 2010, dated 2012).

SMILES strings stand for the structures.

The series in a line: Liquid-crystalline properties of single compounds, determined at 10% in nematic host mixture ZLI-4792. The format is physicochemical. Conditions: 10% in host mixture ZLI-4792. The method, then:
Außerdem werden folgende Abkürzungen und Symbole verwendet: Vo Schwellenspannung, kapazitiv [V] bei 20°C, V10 optische Schwelle für 10 % relativen Kontrast [V] bei 20°C, ne außerordentlicher Brechungsindex bei 20°C und 589 nm, no ordentlicher Brechungsindex bei 20°C und 589 nm, Δn optische Anisotropie bei 20°C und 589 nm, ε⊥ dielektrische Suszeptibilität senkrecht zum Direktor bei 20°C und 1 kHz, ε∥ dielektrische Suszeptibilität parallel zum Direktor bei 20°C und 1 kHz, Δε dielektrische Anisotropie bei 20°C und 1 kHz, Kp., T(N,I) Klärpunkt [°C], γ1 Rotationsviskosität bei 20°C [mPa·s], K1 elastische Konstante, "splay"-Deformation bei 20°C [pN], K2 elastische Konstante, "twist"-Deformation bei 20°C [pN], K3 elastische Konstante, "bend"-Deformation bei 20°C [pN], LTS "low temperature stability" (Phase), bestimmt in Testzellen, ton Einschaltzeit [Transmissionsänderung von 10 % auf 90 %) bei 20 °C und definierter Operationsspannung, toff Ausschaltzeit [Transmissionsänderung von 90 % auf 10 %) bei 20 °C, RT Reaktionszeit (ton + toff) HR20 "voltage holding ratio" bei 20°C [%] und HR100 "voltage holding ratio" bei 100°C [%].
Alle physikalischen Eigenschaften werden und wurden nach "Merck Liquid Crystals, Physical Properties of Liquid Crystals", Status Nov. 1997, Merck KGaA, Darmstadt, Deutschland bestimmt und gelten für eine Temperatur von 20°C und An wird bei 589 nm und Δε bei 1 kHz bestimmt, sofern nicht jeweils explizit anders angegeben.
Die flüssigkristallinen Eigenschaften der Einzelverbindungen werden, soweit nicht anders angegeben, in der nematischen Wirtsmischung ZLI-4792 (kommerziell erhältlich von Merck KGaA, Darmstadt) bei einer Konzentration von 10% bestimmt.

Regarding `CCCc1ccc(-c2cc(F)c(-c3ccc(C)s3)c(F)c2)cc1` [PUS-3-1, 2-(3,5-Difluor-4'-propyl-biphenyl-4-yl)-5-methyl-thiophen], the Δε entry (dielectric anisotropy at 20°C and 1 kHz) was “+3,1”. Moreover, the Δn (optical anisotropy at 20°C and 589 nm) is reported as 0,3055. For the same compound, under “rotational viscosity at 20°C”, the γ1 was determined as 102 mPa·s.
